Key:
[1] = molecular target: Muscarinic acetylcholine receptor M4 (Homo sapiens) (UniProt P08173); settings: Compound concentration 10.0 uM
[2] = molecular target: LIM domain kinase 2 (Homo sapiens) (UniProt P53671); settings: Compound concentration 1.0 uM
[3] = molecular target: eIF-2-alpha kinase GCN2 (Homo sapiens) (UniProt Q9P2K8); settings: Compound concentration 1.0 uM
[4] = molecular target: Insulin receptor (Homo sapiens) (UniProt P06213); settings: Compound concentration 1.0 uM
[5] = molecular target: SRSF protein kinase 1 (Homo sapiens) (UniProt Q96SB4); settings: Compound concentration 1.0 uM
Chain of SRSF protein kinase 1 (Homo sapiens) (Q96SB4 whole entry): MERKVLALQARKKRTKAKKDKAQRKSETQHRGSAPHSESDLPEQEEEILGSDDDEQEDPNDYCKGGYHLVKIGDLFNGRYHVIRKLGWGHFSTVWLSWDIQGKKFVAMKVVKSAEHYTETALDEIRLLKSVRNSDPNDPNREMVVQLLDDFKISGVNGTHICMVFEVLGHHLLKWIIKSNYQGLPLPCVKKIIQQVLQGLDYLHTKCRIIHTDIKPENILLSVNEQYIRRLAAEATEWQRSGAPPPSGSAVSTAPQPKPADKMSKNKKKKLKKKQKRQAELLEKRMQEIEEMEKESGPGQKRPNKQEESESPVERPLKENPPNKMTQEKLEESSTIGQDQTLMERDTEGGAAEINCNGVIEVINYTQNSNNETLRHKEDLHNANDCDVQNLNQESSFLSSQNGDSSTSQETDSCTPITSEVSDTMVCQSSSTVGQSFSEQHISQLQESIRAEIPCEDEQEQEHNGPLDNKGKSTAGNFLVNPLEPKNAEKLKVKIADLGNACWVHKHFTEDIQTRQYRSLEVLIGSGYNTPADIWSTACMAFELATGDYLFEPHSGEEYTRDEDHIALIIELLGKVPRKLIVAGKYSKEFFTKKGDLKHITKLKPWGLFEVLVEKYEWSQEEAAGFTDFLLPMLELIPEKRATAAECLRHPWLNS

[6] = molecular target: T1, Mitogen-activated protein kinase 13 (Homo sapiens) (UniProt O15264); settings: Compound concentration 1.0 uM
T1 sequence (whole entry): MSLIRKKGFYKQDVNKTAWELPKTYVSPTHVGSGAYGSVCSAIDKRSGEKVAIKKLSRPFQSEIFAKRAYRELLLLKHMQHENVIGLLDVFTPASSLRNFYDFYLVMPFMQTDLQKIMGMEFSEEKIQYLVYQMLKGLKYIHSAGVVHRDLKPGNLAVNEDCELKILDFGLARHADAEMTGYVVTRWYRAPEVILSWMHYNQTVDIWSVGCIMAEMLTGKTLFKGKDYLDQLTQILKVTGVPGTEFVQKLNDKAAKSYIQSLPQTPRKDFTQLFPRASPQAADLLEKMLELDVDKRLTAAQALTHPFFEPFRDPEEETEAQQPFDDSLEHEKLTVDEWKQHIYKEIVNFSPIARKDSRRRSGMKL

[7] = molecular target: Tyrosine-protein kinase JAK2 (Homo sapiens) (UniProt O60674); settings: Compound concentration 1.0 uM
[8] = molecular target: T2, Serine/threonine-protein kinase Nek3 (Homo sapiens) (UniProt P51956); settings: Compound concentration 1.0 uM
T2 sequence (whole entry): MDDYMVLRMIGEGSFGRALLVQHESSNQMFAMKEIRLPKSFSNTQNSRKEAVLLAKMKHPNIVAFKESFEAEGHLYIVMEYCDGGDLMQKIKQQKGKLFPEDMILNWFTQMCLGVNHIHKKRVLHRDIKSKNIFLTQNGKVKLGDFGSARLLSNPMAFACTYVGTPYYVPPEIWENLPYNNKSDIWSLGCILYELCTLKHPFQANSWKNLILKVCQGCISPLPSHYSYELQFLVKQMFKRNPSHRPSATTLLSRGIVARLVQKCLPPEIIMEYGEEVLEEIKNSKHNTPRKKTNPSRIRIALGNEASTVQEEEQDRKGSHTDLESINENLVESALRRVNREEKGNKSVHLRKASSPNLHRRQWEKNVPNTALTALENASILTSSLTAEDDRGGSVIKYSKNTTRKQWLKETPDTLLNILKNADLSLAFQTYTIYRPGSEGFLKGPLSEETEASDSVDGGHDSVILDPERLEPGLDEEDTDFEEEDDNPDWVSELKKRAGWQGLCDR

[9] = molecular target: Dual specificity tyrosine-phosphorylation-regulated kinase 1B (Homo sapiens) (UniProt Q9Y463); settings: Compound concentration 1.0 uM
[10] = molecular target: Eukaryotic translation initiation factor 2-alpha kinase 1 (Homo sapiens) (UniProt Q9BQI3); settings: Compound concentration 1.0 uM
Chain of Eukaryotic translation initiation factor 2-alpha kinase 1 (Homo sapiens) (Q9BQI3 whole entry): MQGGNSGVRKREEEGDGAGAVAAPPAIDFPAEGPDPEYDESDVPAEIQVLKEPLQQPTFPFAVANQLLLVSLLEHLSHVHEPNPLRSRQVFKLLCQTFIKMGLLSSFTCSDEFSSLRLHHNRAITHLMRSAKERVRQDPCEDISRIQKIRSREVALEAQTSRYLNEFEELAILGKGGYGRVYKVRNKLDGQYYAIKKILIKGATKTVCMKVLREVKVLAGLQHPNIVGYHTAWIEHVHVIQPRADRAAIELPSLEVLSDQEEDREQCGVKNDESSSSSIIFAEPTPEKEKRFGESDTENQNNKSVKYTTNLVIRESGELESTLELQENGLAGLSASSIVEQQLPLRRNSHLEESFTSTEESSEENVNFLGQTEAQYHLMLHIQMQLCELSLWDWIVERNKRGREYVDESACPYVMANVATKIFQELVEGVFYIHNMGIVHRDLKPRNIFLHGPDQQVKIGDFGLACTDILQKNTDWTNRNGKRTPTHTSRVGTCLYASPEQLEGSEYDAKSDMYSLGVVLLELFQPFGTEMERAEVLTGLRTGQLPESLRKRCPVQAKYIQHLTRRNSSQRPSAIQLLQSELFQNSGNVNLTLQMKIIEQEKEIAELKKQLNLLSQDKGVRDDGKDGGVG

[11] = molecular target: Calcium/calmodulin-dependent protein kinase type 1B (Homo sapiens) (UniProt Q6P2M8); settings: Compound concentration 1.0 uM
[12] = molecular target: Serine/threonine-protein kinase PAK 3 (Homo sapiens) (UniProt O75914); settings: Compound concentration 1.0 uM
Chain of Serine/threonine-protein kinase PAK 3 (Homo sapiens) (O75914 whole entry, looked up): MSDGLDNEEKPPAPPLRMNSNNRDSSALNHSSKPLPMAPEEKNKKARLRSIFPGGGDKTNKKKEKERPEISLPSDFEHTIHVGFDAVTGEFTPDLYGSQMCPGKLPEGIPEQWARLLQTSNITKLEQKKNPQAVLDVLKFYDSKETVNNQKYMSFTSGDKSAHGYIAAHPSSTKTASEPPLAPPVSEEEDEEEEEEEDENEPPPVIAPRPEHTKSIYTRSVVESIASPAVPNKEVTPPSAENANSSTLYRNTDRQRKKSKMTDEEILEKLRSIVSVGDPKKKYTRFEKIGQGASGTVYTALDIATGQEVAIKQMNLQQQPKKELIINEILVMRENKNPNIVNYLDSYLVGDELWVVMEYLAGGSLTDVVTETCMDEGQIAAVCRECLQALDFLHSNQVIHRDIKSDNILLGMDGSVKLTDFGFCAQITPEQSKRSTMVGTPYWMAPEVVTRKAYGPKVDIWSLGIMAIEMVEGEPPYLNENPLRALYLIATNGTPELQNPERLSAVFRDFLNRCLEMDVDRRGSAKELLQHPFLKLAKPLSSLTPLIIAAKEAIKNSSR

[13] = molecular target: Protein kinase C alpha type (Homo sapiens) (UniProt P17252); settings: Compound concentration 1.0 uM
[14] = molecular target: Tyrosine-protein kinase JAK1 (Homo sapiens) (UniProt P23458); settings: Compound concentration 1.0 uM
[15] = molecular target: Tyrosine-protein kinase HCK (Homo sapiens) (UniProt P08631); settings: Compound concentration 1.0 uM
[16] = molecular target: T3, Serine/threonine-protein kinase DCLK2 (Homo sapiens) (UniProt Q8N568); settings: Compound concentration 1.0 uM
T3 sequence (whole entry): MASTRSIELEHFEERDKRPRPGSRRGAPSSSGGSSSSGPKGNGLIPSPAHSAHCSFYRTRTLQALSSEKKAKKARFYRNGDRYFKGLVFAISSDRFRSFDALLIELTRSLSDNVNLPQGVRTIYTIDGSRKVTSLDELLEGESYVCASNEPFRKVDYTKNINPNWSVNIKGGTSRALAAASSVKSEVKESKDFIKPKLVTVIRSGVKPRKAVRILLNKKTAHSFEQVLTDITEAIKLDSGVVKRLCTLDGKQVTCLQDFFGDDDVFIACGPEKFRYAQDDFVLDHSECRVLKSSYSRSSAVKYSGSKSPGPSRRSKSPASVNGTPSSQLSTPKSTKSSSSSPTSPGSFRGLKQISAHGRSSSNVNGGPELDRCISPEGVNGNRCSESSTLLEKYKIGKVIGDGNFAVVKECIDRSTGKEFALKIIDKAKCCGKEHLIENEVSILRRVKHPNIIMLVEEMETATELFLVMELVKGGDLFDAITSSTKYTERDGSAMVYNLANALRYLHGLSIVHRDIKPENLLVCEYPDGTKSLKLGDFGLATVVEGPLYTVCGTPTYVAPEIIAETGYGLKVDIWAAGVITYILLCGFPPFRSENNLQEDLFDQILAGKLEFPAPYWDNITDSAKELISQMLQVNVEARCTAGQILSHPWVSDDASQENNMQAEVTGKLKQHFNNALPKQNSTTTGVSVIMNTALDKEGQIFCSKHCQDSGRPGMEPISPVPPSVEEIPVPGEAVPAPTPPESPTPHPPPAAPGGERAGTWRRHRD

[17] = molecular target: Calcium/calmodulin-dependent protein kinase kinase 2 (Homo sapiens) (UniProt Q96RR4); settings: Compound concentration 1.0 uM
[18] = molecular target: Dual specificity protein kinase CLK2 (Homo sapiens) (UniProt P49760); settings: Compound concentration 1.0 uM
Chain of Dual specificity protein kinase CLK2 (Homo sapiens) (P49760 whole entry, looked up): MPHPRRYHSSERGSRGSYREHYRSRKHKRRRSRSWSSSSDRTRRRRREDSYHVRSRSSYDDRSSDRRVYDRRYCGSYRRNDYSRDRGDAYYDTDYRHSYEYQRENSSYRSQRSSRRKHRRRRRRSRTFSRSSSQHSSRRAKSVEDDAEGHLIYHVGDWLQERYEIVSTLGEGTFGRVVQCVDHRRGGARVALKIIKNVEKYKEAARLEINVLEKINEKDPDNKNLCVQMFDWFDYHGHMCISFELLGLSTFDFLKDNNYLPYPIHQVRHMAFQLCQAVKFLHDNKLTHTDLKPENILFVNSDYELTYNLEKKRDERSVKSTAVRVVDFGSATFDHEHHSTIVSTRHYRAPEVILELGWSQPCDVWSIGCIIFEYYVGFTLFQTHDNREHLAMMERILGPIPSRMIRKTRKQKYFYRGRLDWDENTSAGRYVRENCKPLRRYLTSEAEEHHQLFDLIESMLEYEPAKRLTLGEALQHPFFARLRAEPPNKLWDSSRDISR

[19] = molecular target: Platelet-derived growth factor receptor alpha (Homo sapiens) (UniProt P16234); settings: Compound concentration 1.0 uM
Chain of Platelet-derived growth factor receptor alpha (Homo sapiens) (P16234 whole entry): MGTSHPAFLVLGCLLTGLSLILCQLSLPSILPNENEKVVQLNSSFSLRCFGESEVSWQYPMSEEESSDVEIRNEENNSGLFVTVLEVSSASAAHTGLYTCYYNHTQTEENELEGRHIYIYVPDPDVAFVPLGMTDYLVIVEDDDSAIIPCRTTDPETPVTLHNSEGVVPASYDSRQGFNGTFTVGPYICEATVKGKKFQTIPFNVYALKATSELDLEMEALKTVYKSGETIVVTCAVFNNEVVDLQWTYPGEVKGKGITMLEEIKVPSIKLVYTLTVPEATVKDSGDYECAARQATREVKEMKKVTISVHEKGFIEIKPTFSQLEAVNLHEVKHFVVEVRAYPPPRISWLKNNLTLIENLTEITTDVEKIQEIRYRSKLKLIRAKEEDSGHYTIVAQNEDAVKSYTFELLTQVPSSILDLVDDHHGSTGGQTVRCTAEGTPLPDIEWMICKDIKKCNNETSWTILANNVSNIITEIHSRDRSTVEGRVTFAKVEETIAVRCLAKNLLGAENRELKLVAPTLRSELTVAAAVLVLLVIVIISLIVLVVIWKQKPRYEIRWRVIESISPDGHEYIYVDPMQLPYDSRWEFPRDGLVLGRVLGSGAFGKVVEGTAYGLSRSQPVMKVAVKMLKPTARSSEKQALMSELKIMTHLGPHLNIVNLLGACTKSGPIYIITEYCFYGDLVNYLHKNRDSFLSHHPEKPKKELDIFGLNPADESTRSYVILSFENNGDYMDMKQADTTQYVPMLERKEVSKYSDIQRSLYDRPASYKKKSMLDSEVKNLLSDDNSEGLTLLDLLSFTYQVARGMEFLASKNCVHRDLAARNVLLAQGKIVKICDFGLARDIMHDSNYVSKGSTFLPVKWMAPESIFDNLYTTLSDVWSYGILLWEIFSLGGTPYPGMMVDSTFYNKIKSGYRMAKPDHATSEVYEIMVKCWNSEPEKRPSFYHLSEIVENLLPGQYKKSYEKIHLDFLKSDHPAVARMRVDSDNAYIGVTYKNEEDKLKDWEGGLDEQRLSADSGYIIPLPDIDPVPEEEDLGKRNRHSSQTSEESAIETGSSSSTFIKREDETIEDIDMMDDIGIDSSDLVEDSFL

[20] = molecular target: CDK12/Cyclin K (Homo sapiens) (UniProt O75909+Q9NYV4); settings: Compound concentration 1.0 uM
[21] = molecular target: Calcium/calmodulin-dependent protein kinase type 1D (Homo sapiens) (UniProt Q8IU85); settings: Compound concentration 1.0 uM
[22] = molecular target: Ephrin type-A receptor 2 (Homo sapiens) (UniProt P29317); settings: Compound concentration 1.0 uM
Chain of Ephrin type-A receptor 2 (Homo sapiens) (P29317 whole entry): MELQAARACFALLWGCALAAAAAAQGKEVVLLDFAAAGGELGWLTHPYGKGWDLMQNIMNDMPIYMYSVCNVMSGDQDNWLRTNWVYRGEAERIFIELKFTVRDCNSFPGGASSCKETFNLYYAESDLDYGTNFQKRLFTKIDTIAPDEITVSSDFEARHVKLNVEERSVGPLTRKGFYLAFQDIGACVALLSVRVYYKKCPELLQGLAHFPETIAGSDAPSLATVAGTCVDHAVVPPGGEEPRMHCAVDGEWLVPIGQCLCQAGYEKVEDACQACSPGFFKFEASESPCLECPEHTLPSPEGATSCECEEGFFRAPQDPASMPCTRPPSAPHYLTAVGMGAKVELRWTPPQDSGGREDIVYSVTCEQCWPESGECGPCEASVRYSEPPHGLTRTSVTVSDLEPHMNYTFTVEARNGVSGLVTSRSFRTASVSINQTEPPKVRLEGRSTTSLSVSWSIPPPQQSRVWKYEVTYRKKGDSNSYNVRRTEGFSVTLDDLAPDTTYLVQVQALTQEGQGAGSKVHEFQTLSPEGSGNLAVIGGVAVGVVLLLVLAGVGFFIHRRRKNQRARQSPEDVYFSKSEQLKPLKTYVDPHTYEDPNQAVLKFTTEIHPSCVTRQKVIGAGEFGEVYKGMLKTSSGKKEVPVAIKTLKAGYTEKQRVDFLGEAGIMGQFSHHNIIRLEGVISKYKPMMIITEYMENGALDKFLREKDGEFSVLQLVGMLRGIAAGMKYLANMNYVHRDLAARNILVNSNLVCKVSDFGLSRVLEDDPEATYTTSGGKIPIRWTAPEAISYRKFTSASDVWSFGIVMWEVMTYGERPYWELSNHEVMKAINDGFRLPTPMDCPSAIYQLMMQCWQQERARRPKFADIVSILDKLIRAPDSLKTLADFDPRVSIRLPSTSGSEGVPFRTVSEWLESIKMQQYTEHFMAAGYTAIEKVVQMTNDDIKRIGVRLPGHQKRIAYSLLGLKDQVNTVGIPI

Chain of LIM domain kinase 2 (Homo sapiens) (P53671 whole entry, looked up, the tested form may be a part): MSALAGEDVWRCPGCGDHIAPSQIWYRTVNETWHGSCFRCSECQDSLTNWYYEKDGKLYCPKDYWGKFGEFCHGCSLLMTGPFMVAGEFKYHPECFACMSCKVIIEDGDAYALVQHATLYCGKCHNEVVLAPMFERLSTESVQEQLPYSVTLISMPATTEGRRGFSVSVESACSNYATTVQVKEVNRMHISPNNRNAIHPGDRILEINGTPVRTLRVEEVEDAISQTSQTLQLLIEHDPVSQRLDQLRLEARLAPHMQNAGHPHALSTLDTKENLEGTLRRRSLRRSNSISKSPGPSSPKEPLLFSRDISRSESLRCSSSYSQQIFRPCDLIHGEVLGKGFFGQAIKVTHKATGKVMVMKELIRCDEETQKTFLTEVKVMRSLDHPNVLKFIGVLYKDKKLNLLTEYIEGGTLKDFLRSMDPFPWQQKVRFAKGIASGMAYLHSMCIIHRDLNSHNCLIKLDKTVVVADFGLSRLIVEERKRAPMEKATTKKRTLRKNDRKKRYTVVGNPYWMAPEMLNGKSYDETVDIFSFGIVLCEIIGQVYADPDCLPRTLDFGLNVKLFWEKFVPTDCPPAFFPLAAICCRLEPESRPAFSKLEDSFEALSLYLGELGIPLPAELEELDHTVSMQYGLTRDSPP

Cc1nc(C2CCN(C(=O)c3ccc(OC(F)(F)F)cc3N)CC2)c2ncc(N3CCN(C)CC3)cc2n1 [BAY-693]
inactive: inhibition [1] -2.04%

CN1CCN(c2cnc3c(C4CCN(C(=O)c5ccc(OC(F)(F)F)cc5N)CC4)ncnc3c2)CC1 [BAY-885]
inactive: % residual kinase activity [2] 104% | % residual kinase activity [3] 98% | % residual kinase activity [4] 107% | % residual kinase activity [5] 114% | % residual kinase activity [6] 112% | % residual kinase activity [7] 100% | % residual kinase activity [8] 111% | % residual kinase activity [9] 106% | % residual kinase activity [10] 104% | % residual kinase activity [11] 104% | % residual kinase activity [12] 106% | % residual kinase activity [13] 107% | % residual kinase activity [14] 104% | % residual kinase activity [15] 95% | % residual kinase activity [16] 90% | % residual kinase activity [17] 102% | % residual kinase activity [18] 109% | % residual kinase activity [19] 105% | % residual kinase activity [20] 94% | % residual kinase activity [21] 94% | % residual kinase activity [22] 100%
